This passage reports IC50 results from patent US9745282B2, “Indoline compounds as aldosterone synthase inhibitors” (Merck Sharp & Dohme Corp., priority 2012, dated 2017).

In one assay the target is human CYP11B2 (Homo sapiens (Human), UniProt P19099). The experiment in a line: V79-Human-CYP11B2 cell assay, modified protocol. The settings on record: V79 cells expressing human CYP11B2. The class given is cell-based. The protocol: (§1) V79 cell lines stably expressing the either the human CYP11B2 or the human CYP11B1 enzyme were generated using a standard transfection protocol. V79 cells were transfected with plasmids pTriEx3-Hygro-hCyp11B2 or pTriEx3-Hygro-hCyp11B1 using Lipofectamine2000 reagent. V79 cells that stably express the human CYP11B2 or human CYP11B1 enzyme were selected for and maintained in DMEM supplemented with 10% FBS and 400 μg/mL hygromycin for 2 weeks. Single cell clones were generated by infinite dilution in DMEM supplemented with 10% FBS and 400 μg/mL hygromycin until single colonies were obtained. […] For testing of inhibitors, cells were harvested at 80% confluency with 0.05% Trypsan-EDTA, washed once in PBS, and reconstituted in DMEM+0.1% BSA media at a cell concentration of 600,000 cells/mL for the CYP11B2 assay and 280,000 cells/mL for the CYP11B1 assay. 25 μL of cells were added to a 384 well tissue culture treated plate and mixed with 0.3 μL of inhibitor or DMSO (1% final DMSO concentration) for 1 hour at 37° C., 5% CO2. After pre-incubation with inhibitor, the reaction was initiated by adding 5 μL of substrate (final concentration of 125 nM 11-deoxycorticosterone for the CYP11B2 assay or 250 nM 11-deoxycortisol for the CYP11B1 assay). The reaction was carried out for 3 hours at 37° C., 5% CO2 and was stopped by harvesting the supernatants. The amount of product in the supernatant (aldosterone for CYP11B2 assay and cortisol for the CYP11B1 assay) was measured using HTRF-based assay kit (Aldosterone HTRF-CisBio#64ALDPEB, Cortisol HTRF-CisBio #63IDC002-CORT). IC50s for the inhibitor were determined by plotting the amount of product formed against the concentration of inhibitor using sigmoidal dose-response curve (variable slope) fit in GraphPad.
Chain of human CYP11B2 (P19099 25-503): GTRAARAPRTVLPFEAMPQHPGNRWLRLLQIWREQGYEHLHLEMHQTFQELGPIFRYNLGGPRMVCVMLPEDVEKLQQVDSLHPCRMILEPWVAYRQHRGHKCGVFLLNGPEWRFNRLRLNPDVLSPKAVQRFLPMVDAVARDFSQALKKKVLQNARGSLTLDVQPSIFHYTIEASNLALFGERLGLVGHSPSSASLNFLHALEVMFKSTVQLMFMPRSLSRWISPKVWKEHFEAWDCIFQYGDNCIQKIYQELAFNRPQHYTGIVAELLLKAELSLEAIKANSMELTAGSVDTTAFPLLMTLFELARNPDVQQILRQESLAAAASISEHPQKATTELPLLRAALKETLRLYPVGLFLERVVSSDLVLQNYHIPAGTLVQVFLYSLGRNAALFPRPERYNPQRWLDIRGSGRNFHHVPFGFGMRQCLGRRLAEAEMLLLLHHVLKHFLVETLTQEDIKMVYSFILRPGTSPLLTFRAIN
(§2) For the CYP11B2 assay, cells were reconstituted in DMEM+0.1% BSA media at a cell concentration of 600,000 cells/mL and for the CYP11B1 assay cells were reconstituted in DMEM+0.1% BSA media at a cell concentration of 280,000 cells/mL. 25 μl of cells were added to a 384 well tissue culture treated plate and mixed with […] or DMSO (1% final DMSO concentration) for 1 hour at 37° C., 5% CO2.

The next assay deals with human CYP11B1 (Homo sapiens (Human), UniProt P15538). Put plainly: V79-Human-CYP11B1 cell assay, modified protocol. It counts as cell-based. The settings on record: V79 cells expressing human CYP11B1. The protocol: as §1, §2
Chain of human CYP11B1 (P15538 25-503): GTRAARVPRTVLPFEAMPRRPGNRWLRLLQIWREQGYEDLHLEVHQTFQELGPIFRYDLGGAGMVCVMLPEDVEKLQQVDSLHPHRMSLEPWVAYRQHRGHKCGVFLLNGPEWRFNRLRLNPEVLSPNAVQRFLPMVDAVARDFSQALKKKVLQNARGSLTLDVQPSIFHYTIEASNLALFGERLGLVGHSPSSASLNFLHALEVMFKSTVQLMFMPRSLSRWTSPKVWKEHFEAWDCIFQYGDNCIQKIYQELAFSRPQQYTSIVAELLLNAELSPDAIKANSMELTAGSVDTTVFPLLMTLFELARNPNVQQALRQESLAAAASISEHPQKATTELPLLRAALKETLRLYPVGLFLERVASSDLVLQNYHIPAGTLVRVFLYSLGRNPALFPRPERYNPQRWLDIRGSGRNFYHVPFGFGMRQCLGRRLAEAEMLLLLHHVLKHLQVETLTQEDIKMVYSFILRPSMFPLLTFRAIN

As usually defined, the IC50 is the concentration that inhibits the measured activity by half. Regarding `COc1ccc(C(=O)N2CCc3cc(-c4cccnc4)ccc32)cc1` [Example 25, 1-[(4-methoxy-phenyl)carbonyl]-5-pyridin-3-yl-2,3-dihydro-1H-indole], the IC50 against human CYP11B2 was 1430 nM; against human CYP11B1, greater than 5000 nM.
The like results for `COc1cncc(-c2ccc3c(c2)CCN3C(C)=O)c1` [Example 54, 1-acetyl-5-(5-methoxypyridin-3-yl)-2,3-dihydro-1H-indole] were, in that order, 16 nM and 803 nM.
The like results for `CC(=O)N1CCc2cc(-c3cnccc3C)ccc21` [Example 58, 1-acetyl-5-(4-methylpyridin-3-yl)-2,3-dihydro-1H-indole] were, in that order, 2.2 nM and 366 nM.
The like results for `CCC(=O)N1CCc2cc(-c3cncc4ccccc34)ccc21` [Example 29, 4-(1-propanoyl-2,3-dihydro-1H-indol-5-yl)isoquinoline] were, in that order, 2.8 nM and 516 nM.
Turning to `O=C(C1CC1)N1CCc2cc(-c3cncc4ccccc34)ccc21` [Example 31, 4-[1-(cyclopropyl-carbonyl)-2,3-dihydro-1H-indol-5-yl]isoquinoline], the IC50 against human CYP11B2 is 152 nM; against human CYP11B1 it was 6090 nM.
The like results for `O=C(Cc1ccccc1)N1CCc2cc(-c3cccnc3)ccc21` [Example 26, 1-(Phenylacetyl)-5-pyridin-3-yl-2,3-dihydro-1H-indole] were, in that order, 3070 nM and greater than 5000 nM.
With `CC(=S)N1CCc2cc(-c3cccnc3)ccc21` [Example 34, 1-(5-(pyridin-3-yl)indolin-1-yl)ethanethione], the IC50 was determined as 6 nM against human CYP11B2 and 3380 nM against human CYP11B1.
